Source: patent US20160115540A1, “PRODRUGS AND DRUGS” (Biogen MA Inc., priority 2013, published 2016)
Counter-ions that a name gives are not always drawn.

System: blood and tissues
Assay: Transcriptional profiling, multi-dosing regimen, naïve mice: blood and other tissues
Assay type: in vivo
Description: In vivo, DMF is rapidly metabolized to monomethyl fumarate (MMF). […] Animals were exposed to CO2 and whole blood collected via cardiac puncture. Two 100 μl aliquots of whole blood were collected in 1.5 mL microcentrifuge tubes and snap frozen in liquid nitrogen. Peripheral (liver, spleen, kidney and jejunum) and CNS brain (cerebellum, hippocampus, striatum and cortex) tissues were harvested and snap frozen in liquid nitrogen, with special care taken to collect tissues of similar size and from the same location. All samples were stored at -80° C. until RNA extraction was conducted. For RNA preparation, frozen tissues were placed in 2 mL RNAse-free 96-well blocks with 1.5 mL QIAzol Lysis Reagent (QIAgen) and a 3.2 mm stainless steel bead (BioSpec Products, Bartlesville, Okla.). Tissues were disrupted for four cycles of 45 seconds in a Mini-Beadbeater (Biospec Products). RNA was extracted in chloroform and the aqueous phase was mixed with an equal volume of 70% ethanol. Extracted RNA was applied to RNeasy 96 plates and purified by the spin method according to the manufacturer's protocol (RNeasy 96 Universal Tissue Protocol, QIAgen, Hilden Germany). 50 ul of snap frozen mouse blood was re-suspended in lysis buffer with proteinase K and arrayed into deep-well plates for automated RNA extraction. RNA extractions were completed on […] (Beckman Coulter, Indianapolis, Ind.) using Agencourt RNAdvance Blood kit (Part number A35604) according to the manufacturer's specifications. RNA integrity was assessed using the HT RNA reagent kit (Part number 760410, Caliper Life Sciences, Hopkinton, Mass.) using a LabChip GX (PerkinElmer, Waltham, Mass.). RNA samples with a RQS score of >8.0 were considered high quality for downstream microarray processing. […] Two micrograms of biotin labeled […] probe were hybridized to Affymetrix GeneChip Affymetrix HT_MG-430_PM plate arrays with modified conditions as described in […] et al. Washing and staining of the hybridized arrays were completed as described in the GeneChip Expression analysis technical manual for HT plate arrays using the Genechip® Array Station (Affymetrix, Santa Clara, Calif.) with modifications as described in […] et al. The processed GeneChip® plate arrays were scanned using GeneTitan scanner (Affymetrix, Santa Clara, Calif.). Affymetrix scans were subject to quality control (QC) measures. These tests included a visual inspection of the distribution of raw signal intensities and an assessment of RNA degradation, relative log expression (RLE), and normalized unsealed standard error (NUSE). All sample scans that passed these QC metrics were included in the analysis. All CEL files were subjected to GC-content-based Robust Multi-array Average (GCRMA) normalization (version 2.20.0) (Irizarry R A, et al. Nucleic Acids Res 2003; 31:e15; Li C, et al. Genome Biol 2001; 2:[…]0032). […] Stat Appl Genet Mol Biol 2004; 3:Article3). […] Springer Science+Business Media 2005). Changes in gene expression were studied by applying a linear modeling approach to fit gene expression levels according to the defined groups of samples (e.g. DMF-, MMF-, and Vehicle-treated animals) and Bayesian posterior error analysis as implemented by Smyth (Smyth G K. Stat Appl Genet Mol Biol 2004; 3:Article3). The comparisons considered included: DMF-vs-MMF, DMF-vs-Vehicle, and MMF-vs-Vehicle. […] Very few DEGs are observed in blood and tissues derived from the central nervous system (brain, cerebellum, cortex, striatum, and spinal cord).

[1] = CEREBELLUM, 100MMF-vs-Veh, naïve multidose
[2] = LYMPH NODE, 100MMF-vs-Veh, naïve multidose
[3] = Table 13: Naïve, Single Dose (so in the source), 90 mpk MMF-vs-Vehicle, 12 h after last dosing
[4] = WHOLE BLOOD, 100MMF-vs-Veh, naïve multidose

COC(=O)/C=C/C(=O)O [MMF, monomethyl fumarate]
FC (1447339_PM_at (no gene symbol), WHOLE BLOOD, 100MMF-vs-Veh): 2.49
FC 1110021J02Rik (1419892_PM_at) [1]: 1.56
FC 9430064I24Rik (1442912_PM_at) [1]: 1.86
FC Aox1 (1419435_PM_at) [1]: 1.54
FC Apold1 (1441228_PM_at) [1]: 1.95
FC Cntn2 (1456962_PM_at) [1]: 1.98
FC D130062J21Rik (1446929_PM_at) [1]: 1.66
FC Kat2b (1450821_PM_at) [1]: −1.68
FC Lrrc50 (1421974_PM_at) [1]: 1.61
FC Pcsk1n (1416965_PM_at) [1]: 1.50
FC Prr15 (1452473_PM_at) [1]: 1.53
FC Slc35a5 (1423457_PM_at) [1]: −1.50
FC Sox12 (1439754_PM_at) [1]: 1.67
FC Tm6sf2 (1425079_PM_at) [1]: 1.85
FC probe 1442605_PM_at (no gene symbol) [1]: −1.75
FC probe 1446131_PM_at (no gene symbol) [1]: 1.78
FC (Csf1 1460220_PM_a_at, WHOLE BLOOD, 100MMF-vs-Veh): 1.75
FC (Csrp3 1460318_PM_at, WHOLE BLOOD, 100MMF-vs-Veh): 1.52
FC (Egr3 1436329_PM_at, WHOLE BLOOD, 100MMF-vs-Veh): −1.60
FC (Gstm1 1416416_PM_x_at, WHOLE BLOOD, 100MMF-vs-Veh): 1.59
FC Gtf2ird1 (1460364_PM_at) [2]: 1.56
FC Npas2 (1421037_PM_at) [2]: 1.75
FC Nqo1 (1423627_PM_at) [2]: 1.74
FC (Lpl 1415904_PM_at, WHOLE BLOOD, 100MMF-vs-Veh): 2.65
FC (Pla2g7 1430700_PM_a_at, WHOLE BLOOD, 100MMF-vs-Veh): 1.76
FC (Slc27a2 1416316_PM_at, WHOLE BLOOD, 100MMF-vs-Veh): −1.93
Number of differentially expressed genes identified: Cerebellum [3]: 15
Number of differentially expressed genes identified: Lymph Node [3]: 3
Number of differentially expressed genes identified: Whole blood [3]: 11
FC (Tnfaip2 1416273_PM_at, WHOLE BLOOD, 100MMF-vs-Veh): 1.81
FC (Tnfaip2 1438855_PM_x_at, WHOLE BLOOD, 100MMF-vs-Veh): 1.52
FC (Trf 1425546_PM_a_at, WHOLE BLOOD, 100MMF-vs-Veh): 1.56
FC A230048O21Rik (1458051_PM_at) [4]: 1.53
FC Aco1 (1456728_PM_x_at) [4]: −2.14
FC Adamts20 (1456901_PM_at) [4]: −1.69
FC Adora2a (1460710_PM_at) [4]: 1.66
FC Ankrd33b (1453782_PM_at) [4]: −1.64
FC Anks1b (1460449_PM_at) [4]: −1.56
FC Armcx2 (1456739_PM_x_at) [4]: −1.76
FC Ascc3 (1457069_PM_at) [4]: −1.61
FC B3galnt2 1454842_PM_a_at [4]: −1.86
FC B3galt1 (1455234_PM_at) [4]: −1.50
FC Cno 1459783_PM_s_at [4]: −1.77
FC Commd3 (1454642_PM_a_at) [4]: −1.50
FC Cycs /// Gm10053 1456071_PM_a_at [4]: −1.64
FC D6Wsu116e (1456056_PM_a_at) [4]: −1.74
FC Ddr1 (1456226_PM_x_at) [4]: −1.58
FC Dnaja1 (1459835_PM_s_at) [4]: −1.60
FC Eftud2 (1456107_PM_x_at) [4]: −1.61
FC Eif4g2 (1452758_PM_s_at) [4]: −1.91
FC Epc2 (1455317_PM_at) [4]: −1.56
FC Fgd4 (1455337_PM_at) [4]: −1.52
FC Fgfbp3 (1453006_PM_at) [4]: −1.58
FC Gm8203 /// H2afz (1456032_PM_x_at) [4]: −1.53
FC Gsto1 1456036_PM_x_at [4]: −1.64
FC Gtf3c3 (1454765_PM_at) [4]: −1.82
FC Hecw1 (1456527_PM_at) [4]: −1.55
FC Hspa1b 1452318_PM_a_at [4]: −1.57
FC Itga8 (1454966_PM_at) [4]: −1.51
FC Kbtbd7 (1452700_PM_s_at) [4]: −1.52
FC Kcnt2 (1459971_PM_at) [4]: −1.73
FC Kctd3 1455816_PM_a_at [4]: −1.88
FC Lasp1 (1455470_PM_x_at) [4]: −1.56
FC Lrrtm1 (1455883_PM_a_at) [4]: −1.60
FC Lztr1 (1455928_PM_x_at) [4]: −2.01
FC Matn2 (1455978_PM_a_at) [4]: −2.07
FC Mrps23 (1459806_PM_x_at) [4]: −1.56
FC Nr3c1 (1457635_PM_s_at) [4]: −1.58
FC Odz2 (1457273_PM_at) [4]: −1.53
FC Olfm1 (1455796_PM_x_at) [4]: −1.65
FC Pcdh17 (1453070_PM_at) [4]: −1.53
FC Pik3ca (1453134_PM_at) [4]: −1.62
FC Pitrm1 (1456577_PM_x_at) [4]: −1.68
FC Prcp (1452190_PM_at) [4]: 1.53
FC Ptpn12 (1455105_PM_at) [4]: −1.54
FC Pvrl3 (1457257_PM_x_at) [4]: −2.12
FC Qrsl1 (1456542_PM_s_at) [4]: −1.67
FC Ralgapa2 (1455750_PM_at) [4]: −1.74
FC Ric8 (1455809_PM_x_at) [4]: −1.56
FC Rnf112 (1456108_PM_x_at) [4]: −1.57
FC Rp2h (1454816_PM_at) [4]: −1.51
FC Snx16 (1456041_PM_at) [4]: −1.78
FC Sos2 (1452281_PM_at) [4]: −1.56
FC Surf4 (1455822_PM_x_at) [4]: −1.56
FC Tceb1 1452593_PM_a_at [4]: −1.52
FC Tmed10 (1454688_PM_x_at) [4]: −1.52
FC Tnik (1458403_PM_at) [4]: −1.58
FC Tra2a (1454725_PM_at) [4]: −1.65
FC Trim23 (1456089_PM_at) [4]: −1.71
FC Ubr3 (1460455_PM_at) [4]: −1.63
FC Wdr6 (1455940_PM_x_at) [4]: −1.50
FC Wtap (1454805_PM_at) [4]: −1.57
FC probe 1452426_PM_x_at (no gene symbol) [4]: −1.56
FC probe 1455603_PM_at (no gene symbol) [4]: −1.71
FC probe 1457494_PM_at (no gene symbol) [4]: −1.53
FC probe 1458639_PM_at (no gene symbol) [4]: 1.51
FC probe 1459409_PM_at (no gene symbol) [4]: 1.71
